Assay results published in patent US6287553A, “Skin care composition” (Unilever Home & Personal Care USA, division of Conopco, Inc., priority 1998, dated 2001).
“Also recorded” adds a separate entry of the source.

Experiments:
[1] = tested on: procollagen-I; assay: Immunohistochemical analysis of procollagen-I expression in photodamaged forearm skin after topical retinoic acid; format: in vivo, human (women)
Excerpt: (§1) Two groups of women were recruited with identical or nearly identical degrees of mild to moderate photodamage on each outer forearm. They were supplied with 0.05% retinoic acid in a moisturising base (Retinova®) and also with a colour matched moisturising cream with similar sensory characteristics (Dermacare® lotion) but no active ingredients as a placebo control. Each participant of the two groups applied the Retinova® to one outer forearm and placebo (Dermacare®) to the other outer forearm. Group 1 applied the products daily to their outer forearms for 14 weeks and the Group 2 applied the products to their outer forearms for 28 weeks. At the end of the studies two full thickness 4 mm punch biopsies were taken from the treated areas of each forearm. Immunohistochemical analysis of the biopsy tissue taken from the participants was performed to identify the effect of retinoic acid treatment on the expression of the skin extracellular matrix components decorin and procollagen-I as compared with the placebo treated forearms. The following procedure was followed:
(§2) Antibody dilution buffer for wax sections was composed of Tris Buffered Saline (TBS), 3% bovine serum albumin (BSA), 0.05% Triton X-100 and 0.05% sodium azide. Primary antibodies for procollagen-I (amino terminal) were obtained from Chemicon International Inc. (cat# MAB 1912, rat IgG1) and used on wax sections at a dilution of 1:800, overnight at 4° C. after the section had been pre-treated trypsin (0.5 mg/ml, 25 minutes, 37° C.). Primary antibodies for decorin were obtained from Biogenesis (rabbit polyclonal) and used on wax sections at a dilution of 1:800, overnight at 4° C. Anti-rat biotinylated secondary antibodies were obtained from DAKO (cat# E0468, rabbit polyclonal) was applied to wax sections at a dilution of 1:400. Anti-rabbit biotinylated secondary antibodies were obtained from Amersham (cat# RPN 1004, donkey polyclonal) was applied to wax sections at a dilution of 1:400. Streptavidin conjugated alkaline phosphatase was obtained from Zymed (cat# 43-4322) and used at a concentration of 1:2500. […]

[2] = tested on: decorin; assay: Decorin synthesis in human dermal fibroblasts (dot blot assay of conditioned medium); format: cell-based; conditions: Fibroblast, 24 h, read-out: upregulation of decorin synthesis
Method: Preparation of Dermal Fibroblast Conditioned Medium Primary human foreskin fibroblasts at passage 2 (P2) were seeded into 12-well plates at 10000 cells/cm^2 and maintained for 24 hours in an atmosphere of 5% carbon dioxide and 4% oxygen in Dulbeccos Modified Eagles Medium (DMEM) supplemented with 10% foetal calf serum. After this time the cells were washed with serum free DMEM and then incubated in fresh serum free DMEM for a further 60 hours. The fibroblast monolayers were then washed again with serum free DMEM. Test reagents and vehicle controls were added to the cells in triplicate in a final volume of 0.4 ml/well fresh serum free DMEM and incubated for a further 24 hours. This fibroblast conditioned medium was either analysed immediately or snap frozen in liquid nitrogen and stored at -70° C. for future analysis. The cells were then counted and data from the dot-blot analysis subsequently standardised to cell number.
Samples of conditioned medium from dermal fibroblasts treated with vehicle (as a control) or test reagents were supplemented with 20 mM dithiothreitol (1:10 dilution of 200 mM stock solution) and 0.1% sodium dodecylsulphate (1:100 dilution of 10% stock solution), mixed well and then incubated at 75° C. for 2 minutes. […]

[3] = tested on: decorin; assay: Immunohistochemical analysis of decorin expression in photodamaged forearm skin after topical retinoic acid; format: in vivo, human (women)
Excerpt: as §1, §2

[4] = tested on: skin; conditions: topical treatment of skin; Griffiths et al. 1993; cited from earlier work
[5] = tested on: keratinocytes; assay: Keratinocyte SDS viability assay (Neutral Red); format: cell-based; conditions: 24 h, read-out: cell viability produced by SDS
Method: Keratinocytes were grown in 96 well plates to approximately 80% confluency in keratinocyte growth medium (KGM) which was then replaced with KGM without hydrocortisone for 24-48 hours. The cells were then treated with a concentration of sodium dodecyl sulphate (SDS) which will produce cell viability of approximately 50% ([…]). The test compounds "c9 t11 CLA" and "t10 c12 CLA" in table 7 are the same as the agents described above in Example 3. […] After incubating for 24 hours the medium was removed and the viability determined by the Neutral Red method. With this method the cells were incubated for 3 hours in KGM containing 25 μg/ml neutral red after which the medium was removed and the cells were then extracted with […] of 1% (v/v) acetic acid, 50% (v/v) ethanol for 30 min units. The absorbance of the extract at 562 nm was determined and the viability evaluated by reference to wells which contained neither SDS nor test compounds.

[6] = Group 1 after 14 weeks, 0.05% retinoic acid (Retinova) daily vs placebo, total 16 participants
[7] = Group 2 after 28 weeks, 0.05% retinoic acid (Retinova) vs placebo, total 15 participants
[8] = topical retinoic acid (Retinova) vs placebo (Dermacare)

Compound | No. of Participants showing marked increase in expression of procollagen-I [1, 6] | No. of Participants showing marked increase in expression of procollagen-I [1, 7] | procollagen-I expression in photodamaged skin [1, 8] | activity at 1 µM [2] | No. of Participants showing marked increase in expression of decorin [3, 6] | No. of Participants showing marked increase in expression of decorin [3, 7] | decorin expression in photodamaged skin [3, 8] | wrinkle effacement / dermal repair [4] | viability at 5 µg/mL [5]
CC1=C(/C=C/C(C)=C/C=C/C(C)=C/C(=O)O)C(C)(C)CCC1 [Retinoic acid, retinoic acid] | 9 No. of Participants | 10 No. of Participants | marked upregulation | 138 ± 14% | 10 No. of Participants | 15 No. of Participants | marked upregulation | induces dermal repair of photodamaged skin; also recorded: wrinkle effacement and dermal repair following topical treatment of skin with retinoic acid arises through new collagen deposition and synthesis in the skin | 
CCCCCCCCCCCCOS(=O)(=O)[O-].[Na+] [sodium dodecyl sulphate (SDS), sodium dodecyl sulphate] |  |  |  |  |  |  |  |  | ~50%
